Values after ≈ are worked out from the molar mass of the structure shown.
Tests used:
[1] = system: Neisseria gonorrhoeae, GC525 (NG-2888); test: In-vitro antibacterial activity, microbroth dilution MIC susceptibility testing; format: cell-based; conditions: gonococcal broth, 20-24 hours at 35° C., lowest concentration preventing visible growth
Method: The in-vitro antibacterial activity of selected compounds was determined against a stain of Neisseria gonorrhoeae, GC525 (NG-2888), which is described by Rouquette-Loughlin et al, in Journal of Bacteriology, February 2003, p. 1101-1106, at p. 1103. In general, minimum inhibitory concentration (MIC) susceptibility testing followed procedures recommended by the National Committee for Clinical Laboratory Standards (NCCLS^1-2) or followed the descriptions described below:
Neisseria gonorrhoeae strains were grown on Chocolate Agar II plates (BBL—Becton Dickinson Microbiology Systems, Cockeysville, Md.) and incubated at 35° C. in a humidified 5% CO2 incubator (Forma Scientific, Marietta Ohio). For microbroth dilution MIC testing, N. gonorrhoeae were tested in gonococcal broth (GCB):
Bacterial culture identifications were confirmed by standard microbiological methods.^4 N. gonorrhoeae strains were streaked onto appropriate agar plates for visualization of purity and expected colony morphology. Gram stains were also utilized.
Bacterial stock cultures are stored as frozen suspensions at −70° C. N. gonorrhoeae cultures are suspended in inactivated Horse Serum (Colorado Serum Company, Denver, Colo.) containing 7.5% glucose prior to snap freezing in a dry ice/ethanol bath.
Frozen stock cultures were used as the initial source of organisms for performing microbroth dilution MIC testing. Stock cultures were passed on their respective growth medium at least one growth cycle (18-24 hours) prior to their use. Bacterial culture suspensions were prepared directly from Chocolate Agar II plates into 10 mL cation-adjusted Mueller-Hinton Broth (CAMHB, BBL, # BB215069). Before use, cultures were adjusted to an optical density value of […] on a Perkin-Elmer Lambda EZ150 Spectrophotometer (Wellesley, Mass.) set at a wavelength of 600 nm. Random cultures were plated for validation of actual colony counts. The adjusted cultures were diluted 400-fold (0.25 mL inoculum+100 mL GCB) into gonococcal broth producing a starting inoculum of approximately 5×10^5 cfu/mL. These cultures were inoculated into test plates (100 uL/well) using a Biomek® FX workstation (Beckman Coulter Inc., Fullerton, Calif.). The inoculated plates were placed in stacks of no more than 4 and covered with an empty plate. Plates were incubated for 20-24 hours at 35° C. in a humidified CO2 incubator.
Drug stock solutions (2 mg/mL in DMSO) were prepared on the day of testing. Drugs were weight corrected for assay content where necessary.
Microbroth dilution stock plates were prepared in two dilution series, 64-0.06 ug drug/mL and 1-0.001 ug drug/mL. For the high concentration series, 200 uL of stock solution (2 mg/mL) was added to duplicate rows of a 96-well plate. This was used as the first well in the dilution series. Serial two-fold decremental dilutions were made using a BioMek FX robot (Beckman Coulter Inc., Fullerton, Calif.) with 10 of the remaining 11 wells, each of which contained 100 uL of the appropriate solvent/diluent. Row 12 contained solvent/diluent only and served as the control. For tube one of the low concentration series, 200 uL of a 31.25 ug/mL stock was added to duplicate rows of a 96-well plate. Serial two-fold dilutions were made as described above.
Daughter plates were spotted (3.2 uL/well) from the stock plates listed above using the BioMek FX robot and were inoculated with organism (100 uL/well) as described previously.
After incubation, the degree of growth in each well was read visually with the aid of a Test Reading Mirror (Dynatech Lab 220-16, Dynex Technologies, Chantilly, Va.). 96-well test plates are read in a darkened room with a single light shining from above. The MIC is the lowest concentration of drug that prevents macroscopically visible growth under the conditions of the test. Each drug dilution series was tested in duplicate; identical results are not always obtained. If MIC values in duplicate tests differ by 1 well (two-fold), the […] value is reported. […]

| SMILES | MIC [1] [µg/mL] | melting point |
| --- | --- | --- |
| CCNC(=O)Nc1cn2ccc(-c3cnc(OC)nc3)cc2n1 [Example 4, 1-Ethyl-3-[7-(2-methoxy-pyrimidin-5-yl)-imidazo[1,2-a]pyridin-2-yl]-urea] | 12.7 (≈ 40.7 µM) | > 300 °C |
| CCNC(=O)Nc1cn2ccc(-c3ccn[nH]3)cc2n1 [Example 38, 1-Ethyl-3-[7-(2H-pyrazol-3-yl)-imidazo[1,2-a]pyridin-2-yl]-urea] | 32 (≈ 118 µM) | 292 to 295 °C (dec.) |
| CCNC(=O)Nc1cn2c(C(=O)NCC)cc(-c3cnc(N(C)C)nc3)cc2n1 [Example 50, 7-(2-Dimethylamino-pyrimidin-5-yl)-2-(3-ethyl-ureido)-imidazo[1,2-a]pyridine-5-carboxylic Acid Ethylamide] | 2 (≈ 5.04 µM) | – |
| CCCNC(=O)Nc1cn2ccc(-c3cncnc3)cc2n1 [Example 29, 1-Propyl-3-(7-pyrimidin-5-yl-imidazo[1,2-a]pyridin-2-yl)-urea] | 16 (≈ 54 µM) | – |
| CCNC(=O)Nc1cn2ccc(-c3noc(=O)[nH]3)cc2n1 [Example 41, 1-Ethyl-3-[7-(5-oxo-4,5-dihydro-[1,2,4]oxadiazol-3-yl)-imidazo[1,2-a]pyridin-2-yl]-urea] | > 64 | – |
| CCNC(=O)Nc1cn2c(-c3cnn(C)c3)cc(-c3cccnc3)cc2n1 [Example 23, 1-Ethyl-3-[5-(1-methyl-1H-pyrazol-4-yl)-7-pyridin-3-yl-imidazo[1,2-a]pyridin-2-yl]-urea] | 0.13 (≈ 0.36 µM) | – |
| CC(C)NC(=O)Nc1cn2ccc(-c3cncnc3)cc2n1 [Example 30, 1-Isopropyl-3-(7-pyrimidin-5-yl-imidazo[1,2-a]pyridin-2-yl)-urea] | 32 (≈ 108 µM) | – |
| CCNC(=O)Nc1cn2ccc(C(=O)N3CCOCC3)cc2n1 [Example 43, 1-Ethyl-3-[7-(morpholine-4-carbonyl)-imidazo[1,2-a]pyridin-2-yl]-urea] | > 64 | – |
| CCNC(=O)Nc1cn2ccc(-c3cncnc3)cc2n1 [Example 8, 1-Ethyl-3-(7-pyrimidin-5-yl-imidazo[1,2-a]pyridin-2-yl)-urea] | 5.66 (≈ 20 µM) | – |

Now from value to compound:

| MIC [1] [µg/mL] | melting point | SMILES |
| --- | --- | --- |
| 16 (≈ 51.4 µM) | 222 to 225 °C (dec.) | CCNC(=O)Nc1cn2ccc(-c3ccc(OC)nc3)cc2n1 [Example 3B, 1-Ethyl-3-[7-(6-methoxy-pyridin-3-yl)-imidazo[1,2-a]pyridin-2-yl]-urea] |
| > 64 | 273 to 279 °C (dec.) | CCOC(=O)Nc1cn2ccc(-c3ccc(OC)nc3)cc2n1 [Example 3A, [7-(6-Methoxy-pyridin-3-yl)-imidazo[1,2-a]pyridin-2-yl]-carbamic Acid Ethyl Ester] |
| 16 (≈ 49.2 µM) | 259 to 263 °C (dec.) | CCNC(=O)Nc1cn2ccc(-c3cnc(N(C)C)nc3)cc2n1 [Example 2B, 1-[7-(2-Dimethylamino-pyrimidin-5-yl)-imidazo[1,2-a]pyridin-2-yl]-3-ethyl-urea] |
| > 64 | 270 to 280 °C (dec.) | CCOC(=O)Nc1cn2ccc(-c3cnc(N(C)C)nc3)cc2n1 [Example 2A, [7-(2-Dimethylamino-pyrimidin-5-yl)-imidazo[1,2-a]pyridin-2-yl]-carbamic Acid Ethyl Ester] |
| 0.5 (≈ 1.47 µM) | – | CCNC(=O)Nc1cn2c(C(=O)OC)cc(-c3cccnc3)cc2n1 [Example 7B, 2-(3-Ethyl-ureido)-7-pyridin-3-yl-imidazo[1,2-a]pyridine-5-carboxylic Acid Methyl Ester] |
